Columns and labels:
[1] = Plasma protein binding in human assessed as unbound fraction at 5 uM incubated for 6 hrs by LC-MS/MS analysis; assay type: ADME, cell-free
[2] = Plasma protein binding in rat assessed as unbound fraction at 5 uM incubated for 6 hrs by LC-MS/MS analysis; assay type: ADME, cell-free
[3] = Unbound fraction in rat brain homogenate at 1 uM incubated for 6 hrs by LC-MS/MS analysis; assay type: ADME, tissue-based

| Structure (SMILES) | Fu [1] | Fu [2] | Fu [3] |
| --- | --- | --- | --- |
| Cc1nc2sc3c(NC4CC4)ncnc3c2c(C)c1Cl.Cl | 0.004 | 0.01 |  |
| Cc1c(Cl)cnc2sc3c(NC4CC(c5ccncc5)C4)ncnc3c12 (stereo not given) | 0.01 | 0.01 | 0.005 |

— ChEMBL document CHEMBL5579875, “Discovery of VU6008677: A Structurally Distinct Tricyclic M4 Positive Allosteric Modulator with Improved CYP450 Profile” (ACS Med Chem Lett, 2024)
